Source: patent US3958000A, “Fungicidal 2-arylthio-, 2-alkylthio- and 2-haloalkylthio-1,2,4-oxadiazolidine-3,5-diones” (Chevron Research Company, priority 1975, dated 1976)

Tests used:
Assay type in all cases: cell-based
Alternaria solani = assay: Fungal spore control (spore slide-germination) against Alternaria solani; conditions: Conc. 4 ppm, overnight in moist chamber, read-out: % Control (percent inhibition of germination of fungus spores)
Monolinia fructicola = assay: Fungal spore control (spore slide-germination) against Monolinia fructicola; conditions: Conc. 10 ppm, overnight in moist chamber, read-out: % Control (percent inhibition of germination of fungus spores)
Botrytis cinerea = assay: Fungal spore control (spore slide-germination) against Botrytis cinerea; conditions: Conc. 10 ppm, overnight in moist chamber, read-out: % Control (percent inhibition of germination of fungus spores)

Compound | inhibition at 4 ppm (Alternaria solani) | inhibition at 10 ppm (Monolinia fructicola) | inhibition at 10 ppm (Botrytis cinerea)
O=c1on(SC(Cl)(Cl)Cl)c(=O)n1C1CCCCC1 [Compound 1, 2-trichloromethylthio-4-cyclohexyl-1,2,4-oxadiazolidine-3,5-dione] | 78% | 100% | 100%
CC(C)n1c(=O)on(SC(Cl)(Cl)Cl)c1=O [Compound 3] | 99% | 100% | 100%
